Source: patent US8288390B2, “Benzofuran derivatives” (Takeda Pharmaceutical Company Limited, priority 2009, dated 2012)

Tests used:
[1] = test system: rat mixed glial culture; assay: Activity of promoting neuronal neogenesis in rat mixed glial culture; assay type: cell-based; details: Rattus norvegicus, 72 h, compound 1 μM + rhIGF-1 100 ng/ml, 3 days culture; absorbance at 450 nm (class III beta-tubulin antibody); control rhIGF-1 only = 100%; read-out: Increase Ratio of the Absorbance (% control)
Description: From a three-day old SD rat, hippocampus and cerebral cortex were removed. By using a kit of dispersion liquid for neuronal cells (MB-X9901, manufactured by SUMITOMO BAKELITE CO., LTD.), cell suspension was prepared and then seeded on a 96-well plate coated with collagen Type I (4860-010, manufactured by Asahi Techno Glass Co., Ltd.) to 10^5 cells/well. Under the condition of 37° C. and 5% CO2, the cells were cultured for four days in a growth medium (D-MEM/F12 with 10% FBS, comprising PS).
After culturing, the medium was exchanged with a medium for differentiation (D-MEM/F12, comprising PS), added with rhIGF-1 (R&D Systems, 291-G1-250, final concentration of 100 ng/ml) and the compound to 1 μM, followed by further culture for three days. Cultured cells were fixed with 4% paraformaldehyde-PBS (manufactured by MUTO PURE CHEMICALS CO., LTD.) and subjected to membrane penetration using 0.1% Triton X-100 PBS, followed by blocking with Block Ace solution (UK-B80, manufactured by Dainippon Sumitomo Pharma Co., Ltd.). As a primary antibody, Anti-neuron-specific class III beta-tubulin antibody (R&D Systems, MAB1195, clone Tuj-1) was used after 1000× dilution. As a secondary antibody, Anti-Mouse Ig, HRP-Linked F (ab′) 2 Fragment Sheep (Amersham Biosciences, NA9310) was used after 10000× dilution. For washing process, the plate washer (BIO-TEK INSTRUMENTS ELX405) was used. For a chromogenic reaction, the reaction was carried out for 10 minutes using TMB Microwell Peroxidase Substrate System (Kirkegaard & Perry Laboratories, 50-76-00), followed by terminating the reaction according to the addition of 1M phosphoric acid. By using the plate reader (Labsystems Multiskan BICHROMATIC), absorbance at 450 nm was measured.
The absorbance for the case in which no compound is added (i.e., control, rhIGF-1 only) was 100%, and the increase ratio of the absorbance for the compound addition (i.e., compound+rhIGF-1) compared to the control was obtained as % control. Activity of the each compound for promoting neuronal differentiation that is measured according to the above method is summarized in Table 9 and Table 10.

[2] = test system: Akt protein; assay: Activity of inhibiting Akt protein degradation in rat mixed glial culture; assay type: cell-based; details: compound 1 μM + rhIGF-1 100 ng/ml, 10 minutes at 37° C.; Akt calibrated with ERK; no addition = 100%, rhIGF-1 only = 0%
Description: The mixed glial cells used in the Test example 1 were seeded on a 6-well plate coated with collagen Type I (manufactured by Asahi Techno Glass Co., Ltd.) to 4×10^6 cells/well. Under the condition of 37° C. and 5% CO2, the cells were cultured for four days in a growth medium (D-MEM/F12 with 10% FBS, comprising PS). After that, the medium was exchanged with a serum-free medium (D-MEM/F12, comprising PS) and the cells were subjected to starvation for 4 hours under the condition of 37° C. and 5% CO2.
Next, rhIGF-1 (R&D Systems, 291-G1-250, final concentration 100 ng/ml) and the compound were added to obtain 1 μM and reacted in a water bath incubator at 37° C. for 10 minutes. Culture supernatant was aspirated off, 150 μL of RIPA (50 mM Tris-HCl pH7.5, 5 mM EDTA, 100 mM NaCl, 30 mM NaF, 5 mM sodium diphosphate, 137 mg/l pepstatin A, 2.5 KIU/l aprotinin, 1% NP-40, 6 mM sodium deoxycholate, 1 μM microcystinLR, 1 μM Z-Leu-Leu-Nva-H(aldehyde), 48 μM leupeptin, 96 μM 4-(2-aminoethyl)benzenesulfonyl fluoride-HCl, 1 mM sodium orthovanadate) was added thereto, and the reaction was terminated. After the termination of the reaction, the cell lysate was recovered by using a cell scraper on ice. Finally, the cell lysate was centrifuged for 30 minutes at 15000 rpm and the supernatant was taken as a cell extract.
Proteins were recovered from the cell extract by using trichloroacetic acid, and quantified according to Lowry method. Standard curve was established with bovine serum albumin. Based on the measured values, each cell extract was diluted with RIPA to prepare it in constant concentration (10 μg/lane). SDS-PAGE was carried out under reducing condition using 10% acrylamide (45 mA, 1.5 hours). After transferring to a PVDF membrane (0.13 A, 1 hour), reaction with an antibody was carried out. As a primary antibody, Akt (Cell Signaling, 9272) and ERK (Santa Cruz, sc-94) were used with the dilution ratio of 1000. As a secondary antibody, HRP-labeled anti-rabbit antibody (NA9340V, manufactured by Amersham) was used with the dilution ratio of 12500. Then, using ImmunoStar reagent (291-55203, manufactured by Wako Pure Chemical Industries, Ltd.), X-ray film detection was carried out. Quantification of the results was carried out by using GS-800 Calibrated Densitometer (manufactured by BioRad), and then the band strength was converted into the numerals by multiplying the absorbance originating from bands of Akt and ERK-1&2 by the area. Akt was calibrated with ERK to give the numeral values.
Inhibitory activity on Akt degradation was expressed as inhibition ratio. Specifically, the case in which neither the compound nor rhIGF-1 was added (no addition) is 100% and the case in which only rhIGF-1 was added is 0%, and then with the value measured from compound+rhIGF-1, the inhibition ratio was obtained. Inhibition ratio(%)=[(compound+rhIGF-1)−(rhIGF-1)]÷[(no addition)−(rhIGF-1)]×100

SMILES	activity at 1 µM [1] [%]	Inhibition of Akt degradation (%) [2] [%]
COc1ccc(N2CCN(c3c(C)c(C)c4c(c3C)CC(C)(C)O4)CC2)c(OC)c1 [Example 1, 1-(2,4-Dimethoxyphenyl)-4-(2,2,4,6,7-pentamethyl-2,3-dihydro-1-benzofuran-5-yl)piperazine]	407	73.3
COc1ccc(N2CCN(c3c(C)c(C)c4c(c3C)C[C@@H](C)O4)CC2)cc1 [Example 21, 1-(4-Methoxyphenyl)-4-[(2R)-2,4,6,7-tetramethyl-2,3-dihydro-1-benzofuran-5-yl]piperazine]	212	121.3
CCOc1ccc(N2CCN(c3c(C)c4c(c(OC)c3C)OC(C)(C)C4)CC2)cc1 [Example 65, 1-(4-Ethoxyphenyl)-4-(7-methoxy-2,2,4,6-tetramethyl-2,3-dihydro-1-benzofuran-5-yl)piperazine]	> 500	121.0
COc1ccc(N2CCN(c3c(C)c(C)c4c(c3C)CC(C)O4)CC2)cc1 (stereo not shown) [Example 20, 1-(4-Methoxyphenyl)-4-[2,4,6,7-tetramethyl-2,3-dihydro-1-benzofuran-5-yl]piperazine]	187	73.9
CCOc1ccc(N2CCN(c3c(C)c4c(c(OC)c3C)OC(C)C4)CC2)cc1 (stereo not shown) [Example 56, 1-(4-Ethoxyphenyl)-4-(7-methoxy-2,4,6-trimethyl-2,3-dihydro-1-benzofuran-5-yl)piperazine]	> 500	–
CCOc1c(C)c(N2CCN(c3ccc(OC)cc3)CC2)c(C)c2c1OC(C)(C)C2 [Example 46, 1-(7-Ethoxy-2,2,4,6-tetramethyl-2,3-dihydro-1-benzofuran-5-yl)-4-(4-methoxyphenyl)piperazine]	221	–
COc1ccc(N2CCN(c3c(C)c(C)c4c(c3C)CC(C)(CN(C)C)O4)CC2)cc1 (stereo not shown) [Example 102, 1-{5-[4-(4-Methoxyphenyl)piperazin-1-yl]-2,4,6,7-tetramethyl-2,3-dihydro-1-benzofuran-2-yl}-N,N-dimethylmethaneamine]	347	–
COc1ccc(N2CCCN(c3c(C)c(C)c4c(c3C)CC(C)(C)O4)CC2)cc1 [Example 45, 1-(4-Methoxyphenyl)-4-(2,2,4,6,7-pentamethyl-2,3-dihydro-1-benzofuran-5-yl)-1,4-diazepane]	205	–
COc1ccc(N2CCN(c3c(C)c(C)c4c(c3C(C)C)CC(C)(C)O4)CC2)cc1 [Example 11, 1-(4-Methoxyphenyl)-4-[2,2,6,7-tetramethyl-4-(1-methylethyl)-2,3-dihydro-1-benzofuran-5-yl]piperazine]	159	–
COc1ccc(C2CN(c3c(C)c(C)c4c(c3C)CC(C)(C)O4)CCN2C)cc1 (stereo not shown) [Example 13, 2-(4-Methoxyphenyl)-1-methyl-4-(2,2,4,6,7-pentamethyl-2,3-dihydro-1-benzofuran-5-yl)piperazine]	265	–
COc1ccc(N2CCN(c3c(C)c(C)c4c(c3C)CC(C)(C)O4)CC2)cc1OC [Example 37, 1-(3,4-Dimethoxyphenyl)-4-(2,2,4,6,7-pentamethyl-2,3-dihydro-1-benzofuran-5-yl)piperazine]	> 500	–
COc1ccc(N2CCN(c3c(C)c(C)c4c(c3-c3ccoc3)CC(C)(C)O4)CC2)cc1 [Example 6, 1-(4-Furan-3-yl-2,2,6,7-tetramethyl-2,3-dihydro-1-benzofuran-5-yl)-4-(4-methoxyphenyl)piperazine]	> 500	–
Cc1c(C)c(N2CCN(c3ccc(F)cc3)CC2)c(C)c2c1OC(C)(C)C2 [Example 41, 1-(4-Fluorophenyl)-4-(2,2,4,6,7-pentamethyl-2,3-dihydro-1-benzofuran-5-yl)piperazine]	> 500	–
CC(=O)c1ccc(N2CCN(c3c(C)c(C)c4c(c3C)CC(C)(C)O4)CC2)cc1 [Example 95, 1-{4-[4-(2,2,4,6,7-Pentamethyl-2,3-dihydro-1-benzofuran-5-yl)piperazin-1-yl]phenyl}ethanone]	405	–
Cc1ccc(N2CCN(c3c(C)c(C)c4c(c3C)CC(C)(C)O4)CC2)cc1 [Example 12, 1-(4-Methylphenyl)-4-(2,2,4,6,7-pentamethyl-2,3-dihydro-1-benzofuran-5-yl)piperazine]	336	–
COc1c(C)c(N2CCN(c3ccc(C)cc3)CC2)c(C)c2c1OC(C)(C)C2 [Example 62, 1-(7-Methoxy-2,2,4,6-tetramethyl-2,3-dihydro-1-benzofuran-5-yl)-4-(4-methylphenyl)piperazine]	> 500	–
COc1ccc(N2CCN(c3c(C)c4c(c(OC)c3C)OC(C)C4)CC2)cc1 (stereo not shown) [Example 48, 1-(4-Methoxyphenyl)-4-(7-methoxy-2,4,6-trimethyl-2,3-dihydro-1-benzofuran-5-yl)piperazine]	> 500	–
COc1ccc(N2CCN(c3c(C)c(C)c4c(c3C)CC(C)(CN3CCCC3)O4)CC2)cc1 (stereo not shown) [Example 116, 1-(4-Methoxyphenyl)-4-[2,4,6,7-tetramethyl-2-(pyrrolidin-1-ylmethyl)-2,3-dihydro-1-benzofuran-5-yl]piperazine]	276	–
